Laboratory results reported in US10172957B2, “Acid-labile lipophilic prodrugs of cancer chemotherapeutic agents” (priority 2011, dated 2019).

Experiments:
[1] = Stability in mouse plasma when added in a lipid emulsion (Liposyn); assay type: in vitro ADME; details: 37° C.
Protocol: (§1) HPLC grade Methanol from Fisher (Fair lawn, NJ, USA). Part No: A452-4 (074833). HPLC grade Water from Fisher (Fair lawn, NJ, USA). Part No: W5-4 (073352). Drug-free mouse, rat and human plasmas were purchased from Innovative Research Inc. (Southfield, Mich., USA). LIPOSYN® I.V. (30% soybean oil and egg yolk phospholipids, Abbott Laboratories) Fat Emulsion from Hospira, Inc. (Lake Forest, Ill.).
(§2) Chromatographic separation of the compounds was performed on a Waters Acquity UPLC™ using a BEH C18 column (1.7 μm, 2.1×50 mm). The mobile phase consisted of Methanol: 0.1% Formic acid (80:20). The flow rate was 0.3 ml/min; the sample injection volume was 5 μL, resulting in a 3 minute run time.
(§3) The MS instrumentation consisted of a Waters Micromass Quattro Micro™ triple-quadrupole system (Manchester, UK). The MS system was controlled by a 4.0 version of MassLynx software. Ionization was performed in the positive electrospray ionization mode. MS/MS conditions were the following: capillary voltage 3.02 kV; cone voltage 50 v; extractor voltage 5 v; and RF lens voltage 0.5 v. The source and desolvation temperatures were 100° C. and 400° C. respectively, and the desolvation and cone gas flow were 400 and 30 L/hr, respectively.
(§4) The selected mass-to-charge (m/z) ratio transitions of the ART 198 used in the selected ion monitoring (SIM) were: for ART 198, 617 (M+K)^+, for ART 273, 589 (M+K)^+, for ART 488, 913 (M+Na)^+, and for ART 489, 957 (M+Na)^+. The dwell time was set at 200 msec. MS conditions were optimized using direct infusion of standard solutions prepared in methanol and delivered by a syringe pump at a flow rate of 20 μL/min.
(§5) Samples of 100 μL were collected at time points of 0, 15, 30, 45, 60, 75, 90, 105, 120, 135, 150, 165, 180, 210, 240, 300, 360 and 480 minutes respectively and the reaction was terminated with methanol. In a separate set of experiments the acid labile, lipophilic molecular conjugates were dissolved in a small amount of ethanol and diluted into a lipid emulsion (Liposyn®) and added to mouse and human plasma before incubation and the hydrolysis of the conjugates was similarly measured. Collected plasma samples of 100 μL containing drug were placed in separate Eppendorf micro centrifuge tubes for processing. Methanol (200 μL) was added to extract the drug using the protein precipitation technique. The micro tubes were then vortex mixed for 10 minutes and centrifuged for 15 minutes at a speed of 10,000 rpm (Eppendorf 5415C centrifuge). The supernatant was collected and filtered using a 0.45 μm filter (Waters 13 mm GHP 0.45 μm) before analysis.
(§6) Samples were collected at various times and the percent remaining of the acid labile, lipophilic molecular conjugate of the cancer chemotherapeutic agent was determined along with the percent of the chemotherapeutic agent released from the hydrolysis of the conjugate.

[2] = Stability in human plasma when added in a lipid emulsion (Liposyn); assay type: in vitro ADME; details: 37° C.
Protocol: as §1, §2, §3, §4, §5, §6

[3] = test system: SK-N-AS cells (MDR− Neuroblastoma); assay: MTS proliferation assay using SK-N-AS cells; assay type: cell-based; details: Homo sapiens, SK-N-AS, read-out: IC50 in SK-N-AS
Protocol: SK-N-AS cells were plated in appropriate growth medium at 5×10^3 per well in 100 μL in 96 well tissue culture plates, Falcon, one plate for each drug to be tested. Column 1 was blank; it contained medium, but no cells. The plates were incubated overnight at 37° C. in 5% CO2 to allow attachment.
Drug diluted in culture media was added to the cells at a concentration of 0.005 nM to 10 μM, in quadruplicate. After 48-72 hours of drug exposure, the MTS agent was added to all wells and incubated 1-6 hrs (37° C., 5% CO2), depending on cell type, as per CellTiter 96® AQueous Non-Radioactive Cell Proliferation Assay (MTS), Promega. Plates were processed using a Bio-Tek Synergy HT Multi-detection microtiter plate reader at 490 nanometer wavelength and data were processed with KC4V.3 software. Data plots of drug concentration vs. absorbance were plotted and the concentration resulting in 50% inhibition (IC50) was extrapolated for each of the tested compounds.
As summarized in Table 1, the IC50 value for each tested compound in the SK-N-AS cell line was determined. The clinical comparator drug, paclitaxel, was included in the experiment to allow comparison of the results of the candidate compounds to a clinically relevant standard in the taxane class.

| Compound | percent remaining of initial drug ([1]; 0 min) [%] | percent remaining of initial drug ([1]; 15 min) [%] | percent remaining of initial drug ([1]; 30 min) [%] | percent remaining of initial drug ([1]; 45 min) [%] | percent remaining of initial drug ([1]; 60 min) [%] | percent remaining of initial drug ([1]; 75 min) [%] | percent remaining of initial drug ([1]; 90 min) [%] | percent remaining of initial drug ([1]; 105 min) [%] | percent remaining of initial drug ([1]; 120 min) [%] | percent remaining of initial drug ([1]; 135 min) [%] | percent remaining of initial drug ([1]; 150 min) [%] | percent remaining of initial drug ([1]; 165 min) [%] | percent remaining of initial drug ([1]; 180 min) [%] | percent remaining of initial drug ([1]; 210 min) [%] | percent remaining of initial drug ([1]; 240 min) [%] | percent remaining of initial drug ([1]; 300 min) [%] | percent remaining of initial drug ([1]; 360 min) [%] | percent remaining of initial drug ([2]; 0 min) [%] | percent remaining of initial drug ([2]; 15 min) [%] | percent remaining of initial drug ([2]; 30 min) [%] | also measured |
| --- | --- | --- | --- | --- | --- | --- | --- | --- | --- | --- | --- | --- | --- | --- | --- | --- | --- | --- | --- | --- | --- |
| CCCCCCCCCCCCCCCC1OCC(COC(=O)OC2=C(C)[C@@H]3C[C@H]4OC(=O)C(OC(=O)CC5(O)CCCCC5)[C@H]5[C@]6(C(=O)OC)OC[C@]45[C@H]([C@@H](O)[C@@H]6O)[C@@]3(C)CC2=O)O1 (some centres unmarked) [ART 489] | 100 | 98.0 | 97.9 | 97.4 | 91.4 | 90.3 | 87.9 | 80.7 | 80.4 | 79.9 | 79.2 | 78.7 | 78.2 | 75.6 | 74.7 | 73.7 | 73.0 | 100 | 98.4 | 93.9 | percent remaining of initial drug ([2]; 45 min): 92.7%; percent remaining of initial drug ([2]; 60 min): 88.2%; percent remaining of initial drug ([2]; 75 min): 87.9%; percent remaining of initial drug ([2]; 90 min): 87.5%; percent remaining of initial drug ([2]; 105 min): 86.4%; percent remaining of initial drug ([2]; 120 min): 86.4%; percent remaining of initial drug ([2]; 135 min): 84.7%; percent remaining of initial drug ([2]; 150 min): 84.6%; percent remaining of initial drug ([2]; 165 min): 83.7%; percent remaining of initial drug ([2]; 180 min): 82.9%; percent remaining of initial drug ([2]; 210 min): 82.0%; percent remaining of initial drug ([2]; 240 min): 81.4%; percent remaining of initial drug ([2]; 300 min): 80.2%; percent remaining of initial drug ([2]; 360 min): 78.2%; percent remaining of initial drug ([2]; 480 min): 76.6% |
| CCCCCCCCCCCCCCCC1OCC(COC(=O)O[C@@H]2C(=O)C=C(C)[C@@H]3C[C@H]4OC(=O)C(OC(=O)CC(O)(C(C)C)C(C)C)C5[C@@H](C)[C@@H](O)[C@@]6(O)OC[C@@]54C6[C@@]23C)O1 (some centres unmarked) [ART 488] | 100 | 98.7 | 98.2 | 97.4 | 96.9 | 97.0 | 98.3 | 96.0 | 95.2 | 93.8 | 93.1 | 92.9 | 91.8 | 91.7 | 91.4 | 91.3 | 90.0 | 100 | 98.3 | 97.3 | IC50 [3]: 0.33 ± 0.1 nM; percent remaining of initial drug ([2]; 45 min): 96.1%; percent remaining of initial drug ([2]; 60 min): 95.8%; percent remaining of initial drug ([2]; 75 min): 95.3%; percent remaining of initial drug ([2]; 90 min): 95.6%; percent remaining of initial drug ([2]; 105 min): 94.6%; percent remaining of initial drug ([2]; 120 min): 94.5%; percent remaining of initial drug ([2]; 135 min): 92.5%; percent remaining of initial drug ([2]; 150 min): 92.2%; percent remaining of initial drug ([2]; 165 min): 91.9%; percent remaining of initial drug ([2]; 180 min): 91.0%; percent remaining of initial drug ([2]; 210 min): 91.0%; percent remaining of initial drug ([2]; 240 min): 90.7%; percent remaining of initial drug ([2]; 300 min): 90.7%; percent remaining of initial drug ([2]; 360 min): 90.2%; percent remaining of initial drug ([2]; 480 min): 88.1% |
